In patent US20140094365A1, “SYNERGISTIC WEED CONTROL FROM APPLICATIONS OF AMINOCYCLOPYRACHLOR AND TRICLOPYR” (Dow AgroSciences LLC, priority 2012, published 2014):

Experiments:
Experiment in all cases: Field trial, post-emergence foliar weed control
Format in all cases: in vivo
[1] = system: broomweed (Sida acuta, SIDAC)
Excerpt: (§1) The (a) aminocyclopyrachlor or an agriculturally acceptable salt or ester thereof is mixed with or applied in combination with (b) triclopyr or an agriculturally acceptable salt or ester thereof in an amount sufficient to induce a synergistic herbicidal effect. […] As described in the Herbicide Handbook of the Weed Science Society of America, Ninth Edition, 2007, p. 429, “‘synergism’ [is] an interaction of two or more factors such that the effect when combined is greater than the predicted effect based on the response to each factor applied separately.” Synergistic in the herbicide context can mean that the use of (a) and (b) as defined above results in an increased weed control effect compared to the weed control effects that are possible with the use of (a) or (b) alone. In some embodiments, the damage or injury to the undesired vegetation caused by the compositions and methods disclosed herein is evaluated using a scale from 0% to 100%, when compared with the untreated control vegetation, wherein 0% indicates no damage to the undesired vegetation and 100% indicates complete destruction of the undesired vegetation. […] 22 (1967)
(§2) Field trials were conducted with applications made to established grassland with naturally occurring weed populations, or applications were made to bare ground with naturally occurring weed populations. The target plants were treated with post emergence foliar applications after they had reached at least 3-4 leaves or at least 2-5 inches in height. All treatments were applied using a randomized complete block trial design, with 3-4 replications per treatment.
(§3) Treatments consisted of aminocyclopyrachlor in acid form and triclopyr-butotyl, each in water and applied alone or in combination. Spray solutions were prepared using an appropriate amount of dilution to form a 2 liter (L) aqueous spray solution with active ingredients in single and two way combinations. Formulated compounds were applied to the plant material with a backpack sprayer equipped with 8003 or Turbojet nozzles calibrated to deliver 187 L/ha to 400 L/ha at a spray height of 18-20 inches (43-50 centimeters (cm)) above average plant canopy.
(§4) The treated plants were buckhorn plantain (Plantago lanceolata, PLALA), calvary clover (Medicago arabica, MEDAB), shepherd's purse (Capsella bursa-pastoris, CAPBP), common fiddleneck (Amsinckia intermedia, AMSIN), redmaids (Calandrinia ciliata, CLNCM), and broomweed (Sida acuta, SIDAC). The treated plots and control plots were rated blind at various intervals after application. Ratings were based on a scale of 0-100%, as discussed above, wherein 0% indicates no damage to the undesired vegetation and 100% indicates complete destruction of the undesired vegetation
(§5) Colby's equation was used to determine the herbicidal effects expected from the mixtures, as described above. The results were measured at 7 days, 14 days, 17 days, 24 days, 27 days, 60 days, and 72 days after the first application of the compositions. […] The herbicide tank mix combinations tested, application rates and ratios employed, plant species tested, and results are given below.

[2] = system: common fiddleneck (Amsinckia intermedia, AMSIN)
Excerpt: as §1, §2, §3, §4, §5

[3] = system: calvary clover (Medicago arabica, MEDAB)
Excerpt: as §1, §2, §3, §4, §5

[4] = system: redmaids (Calandrinia ciliata, CLNCM); conditions: 17 DAYS
Excerpt: as §1, §2, §3, §4, §5

[5] = system: buckhorn plantain (Plantago lanceolata, PLALA)
Excerpt: as §1, §2, §3, §4, §5

[6] = system: shepherd's purse (Capsella bursa-pastoris, CAPBP)
Excerpt: as §1, §2, §3, §4, §5

**Q.** With `CCCCOCCOC(=O)COc1nc(Cl)c(Cl)cc1Cl` [Triclopyr-butotyl] as the compound, how does the “Mean % weed control” value ([1]; 60 DAYS, 360 g ae/ha alone) read?
**A.** 2%

**Q.** And the “Mean % weed control” value ([1]; 72 DAYS, 360 g ae/ha alone)?
**A.** 10%

**Q.** What about the “Mean % weed control” value ([2]; 17 DAYS, 70 g ae/ha alone) of the same compound?
**A.** 0%

**Q.** What about the “Mean % weed control” value ([2]; 24 DAYS, 70 g ae/ha alone) of the same compound?
**A.** 0%

**Q.** And the “Mean % weed control” value ([3]; 7 DAYS, 70 g ae/ha alone)?
**A.** 13.75%

**Q.** What about the “Mean % weed control” value ([3]; 14 DAYS, 70 g ae/ha alone) of the same compound?
**A.** 10%

**Q.** What about the “Mean % weed control” value ([3]; 27 DAYS, 35 g ae/ha alone) of the same compound?
**A.** 2.5%

**Q.** And the “Mean % weed control” value ([3]; 27 DAYS, 70 g ae/ha alone)?
**A.** 5%

**Q.** What about the “Mean % weed control” value ([4]; 70 g ae/ha alone) of the same compound?
**A.** 20%

**Q.** And the “Mean % weed control” value ([4]; 140 g ae/ha alone)?
**A.** 23.33%

**Q.** What about the “Mean % weed control” value ([5]; 14 DAYS, 70 g ae/ha alone) of the same compound?
**A.** 7.5%

**Q.** What about the “Mean % weed control” value ([5]; 27 DAYS, 35 g ae/ha alone (triclopyr-butotyl)) of the same compound?
**A.** 2.5%

**Q.** And the “Mean % weed control” value ([5]; 27 DAYS, 70 g ae/ha alone)?
**A.** 3.75%

**Q.** And the “Mean % weed control” value ([6]; 17 DAYS, 35 g ae/ha alone)?
**A.** 40%

**Q.** And the “Mean % weed control” value ([6]; 17 DAYS, 70 g ae/ha alone)?
**A.** 46.67%

**Q.** What about the “Mean % weed control” value ([6]; 24 DAYS, 35 g ae/ha alone) of the same compound?
**A.** 40%

**Q.** And the “Mean % weed control” value ([6]; 24 DAYS, 70 g ae/ha alone)?
**A.** 58.33%

**Q.** `Nc1nc(C2CC2)nc(C(=O)O)c1Cl` [Aminocyclopyrachlor, 6-amino-5-chloro-2-cyclopropylpyrimidine-4-carboxylic acid] was tested. Which “Mean % weed control” value ([1]; 60 DAYS, 150 g ae/ha alone) did it give?
**A.** 53%

**Q.** What about the “Mean % weed control” value ([1]; 72 DAYS, 150 g ae/ha alone) of the same compound?
**A.** 60%

**Q.** And the “Mean % weed control” value ([2]; 17 DAYS, 35 g ae/ha alone)?
**A.** 0%

**Q.** What about the “Mean % weed control” value ([2]; 24 DAYS, 35 g ae/ha alone) of the same compound?
**A.** 0%

**Q.** What about the “Mean % weed control” value ([3]; 7 DAYS, 18 g ae/ha alone) of the same compound?
**A.** 20%

**Q.** What about the “Mean % weed control” value ([3]; 14 DAYS, 18 g ae/ha alone) of the same compound?
**A.** 47.5%

**Q.** What about the “Mean % weed control” value ([3]; 14 DAYS, 35 g ae/ha alone) of the same compound?
**A.** 47.5%

**Q.** What about the “Mean % weed control” value ([3]; 27 DAYS, 18 g ae/ha alone) of the same compound?
**A.** 27.5%

**Q.** And the “Mean % weed control” value ([4]; 35 g ae/ha alone)?
**A.** 16.67%

**Q.** What about the “Mean % weed control” value ([5]; 14 DAYS, 18 g ae/ha alone) of the same compound?
**A.** 37.5%

**Q.** And the “Mean % weed control” value ([5]; 14 DAYS, 35 g ae/ha alone)?
**A.** 40%

**Q.** What about the “Mean % weed control” value ([5]; 27 DAYS, 18 g ae/ha alone) of the same compound?
**A.** 22.5%

**Q.** And the “Mean % weed control” value ([5]; 27 DAYS, 35 g ae/ha alone (aminocyclopyrachlor))?
**A.** 35%

**Q.** And the “Mean % weed control” value ([6]; 17 DAYS, 18 g ae/ha alone)?
**A.** 23.33%

**Q.** What about the “Mean % weed control” value ([6]; 24 DAYS, 18 g ae/ha alone) of the same compound?
**A.** 20%
